Experimental data from patent US20100267561A1, “HERBICIDAL PYRIDAZINONE DERIVATIVES” (priority 2007, published 2010).

Legend:
Test in all cases: Test E pre-/postemergence plant response
Type in all cases: in vivo
[1] = test system: purple nutsedge (Cyperus rotundus); settings: scale 0 to 100
From the text: (§1) Seeds of plant species selected from bermudagrass (Cynodon dactylon), Surinam grass (Brachiaria decumbens), large crabgrass (Digitaria sanguinalis), green foxtail (Setaria viridis), goosegrass (Eleusine indica), johnsongrass (Sorghum halepense), kochia (Kochia scoparia), pitted morningglory (Ipomoea lacunosa), purple nutsedge (Cyperus rotundus), common ragweed (Ambrosia elation), black mustard (Brassica nigra), guineagrass (Panicum maximum), dallisgrass (Paspalum dilatatum), barnyardgrass (Echinochloa crus-galli), southern (S.) sandbur (Cenchrus echinatus), common sowthistle (Sonchus oleraceous), prickly sida (Sida spinosa), Italian ryegrass (Lolium multiflorum), common purslane (Portulaca oleracea), broadleaf signalgrass (Brachiaria platyphylla), common groundsel (Senecio vulgaris), common chickweed (Stellaria media), Virginia (V.) dayflower (Commelina virginica), tropical (T.) spiderwort (Commelina benghalensis), annual bluegrass (Poa annua), naked crabgrass (Digitaria nuda), itchgrass (Rottboellia cochinchinensis), quackgrass (Elytrigia repens), Canada horseweed (Conyza canadensis), field bindweed (Convolvulus arvensis), spanishneedles (Bidens bipinnata), common mallow (Malva sylvestris) and Russian thistle (Salsola kali) were planted and treated preemergence with test chemicals formulated in a non-phytotoxic solvent mixture which included a surfactant. At the same time, plants selected from these weed species were treated with postemergence applications of some of the test chemicals formulated in the same manner. Plants ranged in height from 2 to 18 cm (1- to 4-leaf stage) for postemergence treatments.
(§2) Treated plants and controls were maintained in a greenhouse for 14 to 21 days, after which time all species were compared to controls and visually evaluated. Plant response ratings, summarized in Table E, are based on a scale of 0 to 100 where 0 is no effect and 100 is complete control. A dash (-) response means no test result.

[2] = test system: surinam grass (Brachiaria decumbens); settings: scale 0 to 100
From the text: as §1, §2

[3] = test system: guineagrass (Panicum maximum); settings: scale 0 to 100
From the text: as §1, §2

[4] = test system: goosegrass (Eleusine indica); settings: scale 0 to 100
From the text: as §1, §2

[5] = test system: black mustard (Brassica nigra); settings: scale 0 to 100
From the text: as §1, §2

[6] = test system: pitted morningglory (Ipomoea lacunosa); settings: scale 0 to 100
From the text: as §1, §2

[7] = test system: annual bluegrass (Poa annua); settings: scale 0 to 100
From the text: as §1, §2

[8] = test system: southern (S.) sandbur (Cenchrus echinatus); settings: scale 0 to 100
From the text: as §1, §2

[9] = test system: itchgrass (Rottboellia cochinchinensis); settings: scale 0 to 100
From the text: as §1, §2

[10] = test system: green foxtail (Setaria viridis); settings: scale 0 to 100
From the text: as §1, §2

[11] = test system: common groundsel (Senecio vulgaris); settings: Postemergence, scale 0 to 100
From the text: as §1, §2

[12] = test system: common mallow (Malva sylvestris); settings: scale 0 to 100
From the text: as §1, §2

[13] = test system: common purslane (Portulaca oleracea); settings: scale 0 to 100
From the text: as §1, §2

[14] = test system: quackgrass (Elytrigia repens); settings: scale 0 to 100
From the text: as §1, §2

[15] = test system: bermudagrass (Cynodon dactylon); settings: scale 0 to 100
From the text: as §1, §2

[16] = test system: Italian ryegrass (Lolium multiflorum); settings: scale 0 to 100
From the text: as §1, §2

[17] = test system: johnsongrass (Sorghum halepense); settings: scale 0 to 100
From the text: as §1, §2

SMILES: Cc1cc(-c2ccc(Cl)cc2)nn1-c1c(OS(=O)(=O)c2ccccc2)cnn(C)c1=O [Compound 35]
- Plant response rating, Nutsedge, Purple ([1]; 16 g ai/ha, Preemergence): 0
- Plant response rating, Nutsedge, Purple ([1]; 62 g ai/ha, Preemergence): 0
- Plant response rating, Nutsedge, Purple ([1]; Postemergence, 8 g ai/ha): 0
- Plant response rating, Nutsedge, Purple ([1]; Postemergence, 16 g ai/ha): 0
- Plant response rating, Nutsedge, Purple ([1]; Postemergence, 31 g ai/ha): 0
- Plant response rating, Nutsedge, Purple ([1]; Postemergence, 62 g ai/ha): 0
- Plant response rating, Surinam Grass ([2]; 16 g ai/ha, Preemergence): 95
- Plant response rating, Surinam Grass ([2]; 31 g ai/ha, Preemergence): 100
- Plant response rating, Surinam Grass ([2]; 62 g ai/ha, Preemergence): 100
- Plant response rating, Surinam Grass ([2]; Postemergence, 8 g ai/ha): 70
- Plant response rating, Surinam Grass ([2]; Postemergence, 16 g ai/ha): 75
- Plant response rating, Surinam Grass ([2]; Postemergence, 31 g ai/ha): 80
- Plant response rating, Surinam Grass ([2]; Postemergence, 62 g ai/ha): 90
- Plant response rating, Guineagrass ([3]; 16 g ai/ha, Preemergence): 100
- Plant response rating, Guineagrass ([3]; 31 g ai/ha, Preemergence): 100
- Plant response rating, Guineagrass ([3]; 62 g ai/ha, Preemergence): 100
- Plant response rating, Guineagrass ([3]; Postemergence, 8 g ai/ha): 75
- Plant response rating, Guineagrass ([3]; Postemergence, 16 g ai/ha): 75
- Plant response rating, Guineagrass ([3]; Postemergence, 31 g ai/ha): 80
- Plant response rating, Guineagrass ([3]; Postemergence, 62 g ai/ha): 95
- Plant response rating, Goosegrass ([4]; 8 g ai/ha, Preemergence): 20
- Plant response rating, Goosegrass ([4]; 16 g ai/ha, Preemergence): 75
- Plant response rating, Goosegrass ([4]; 31 g ai/ha, Preemergence): 100
- Plant response rating, Goosegrass ([4]; 62 g ai/ha, Preemergence): 100
- Plant response rating, Goosegrass ([4]; Postemergence, 8 g ai/ha): 30
- Plant response rating, Goosegrass ([4]; Postemergence, 16 g ai/ha): 30
- Plant response rating, Goosegrass ([4]; Postemergence, 31 g ai/ha): 40
- Plant response rating, Goosegrass ([4]; Postemergence, 62 g ai/ha): 75
- Plant response rating, Mustard, Black ([5]; 8 g ai/ha, Preemergence): 0
- Plant response rating, Mustard, Black ([5]; 16 g ai/ha, Preemergence): 0
- Plant response rating, Mustard, Black ([5]; 31 g ai/ha, Preemergence): 0
- Plant response rating, Mustard, Black ([5]; 62 g ai/ha, Preemergence): 0
- Plant response rating, Mustard, Black ([5]; Postemergence, 8 g ai/ha): 0
- Plant response rating, Mustard, Black ([5]; Postemergence, 16 g ai/ha): 0
- Plant response rating, Mustard, Black ([5]; Postemergence, 31 g ai/ha): 0
- Plant response rating, Mustard, Black ([5]; Postemergence, 62 g ai/ha): 0
- Plant response rating, Morningglory ([6]; 16 g ai/ha, Preemergence): 0
- Plant response rating, Morningglory ([6]; 31 g ai/ha, Preemergence): 0
- Plant response rating, Morningglory ([6]; 62 g ai/ha, Preemergence): 0
- Plant response rating, Morningglory ([6]; Postemergence, 8 g ai/ha): 0
- Plant response rating, Morningglory ([6]; Postemergence, 16 g ai/ha): 0
- Plant response rating, Morningglory ([6]; Postemergence, 31 g ai/ha): 0
- Plant response rating, Morningglory ([6]; Postemergence, 62 g ai/ha): 0
- Plant response rating, Bluegrass ([7]; 8 g ai/ha, Preemergence): 0
- Plant response rating, Bluegrass ([7]; 16 g ai/ha, Preemergence): 0
- Plant response rating, Bluegrass ([7]; 31 g ai/ha, Preemergence): 0
- Plant response rating, Bluegrass ([7]; 62 g ai/ha, Preemergence): 0
- Plant response rating, Bluegrass ([7]; Postemergence, 8 g ai/ha): 0
- Plant response rating, Bluegrass ([7]; Postemergence, 16 g ai/ha): 0
- Plant response rating, Bluegrass ([7]; Postemergence, 31 g ai/ha): 0
- Plant response rating, Bluegrass ([7]; Postemergence, 62 g ai/ha): 0
- Plant response rating, Sandbur, S. ([8]; 16 g ai/ha, Preemergence): 75
- Plant response rating, Sandbur, S. ([8]; 31 g ai/ha, Preemergence): 90
- Plant response rating, Sandbur, S. ([8]; 62 g ai/ha, Preemergence): 100
- Plant response rating, Sandbur, S. ([8]; Postemergence, 8 g ai/ha): 40
- Plant response rating, Sandbur, S. ([8]; Postemergence, 16 g ai/ha): 75
- Plant response rating, Sandbur, S. ([8]; Postemergence, 31 g ai/ha): 75
- Plant response rating, Sandbur, S. ([8]; Postemergence, 62 g ai/ha): 75
- Plant response rating, Itchgrass ([9]; 16 g ai/ha, Preemergence): 75
- Plant response rating, Itchgrass ([9]; 31 g ai/ha, Preemergence): 75
- Plant response rating, Itchgrass ([9]; 62 g ai/ha, Preemergence): 75
- Plant response rating, Itchgrass ([9]; Postemergence, 8 g ai/ha): 30
- Plant response rating, Itchgrass ([9]; Postemergence, 16 g ai/ha): 40
- Plant response rating, Itchgrass ([9]; Postemergence, 31 g ai/ha): 70
- Plant response rating, Itchgrass ([9]; Postemergence, 62 g ai/ha): 70
- Plant response rating, Foxtail, Green ([10]; 8 g ai/ha, Preemergence): 15
- Plant response rating, Foxtail, Green ([10]; 16 g ai/ha, Preemergence): 35
- Plant response rating, Foxtail, Green ([10]; 31 g ai/ha, Preemergence): 90
- Plant response rating, Foxtail, Green ([10]; 62 g ai/ha, Preemergence): 98
- Plant response rating, Foxtail, Green ([10]; Postemergence, 8 g ai/ha): 40
- Plant response rating, Foxtail, Green ([10]; Postemergence, 16 g ai/ha): 60
- Plant response rating, Foxtail, Green ([10]; Postemergence, 31 g ai/ha): 65
- Plant response rating, Foxtail, Green ([10]; Postemergence, 62 g ai/ha): 75
- Plant response rating, Groundsel ([11]; 8 g ai/ha): 0
- Plant response rating, Groundsel ([11]; 16 g ai/ha): 0
- Plant response rating, Mallow ([12]; 62 g ai/ha, Preemergence): 0
- Plant response rating, Mallow ([12]; Postemergence, 8 g ai/ha): 0
- Plant response rating, Mallow ([12]; Postemergence, 16 g ai/ha): 0
- Plant response rating, Mallow ([12]; Postemergence, 31 g ai/ha): 0
- Plant response rating, Mallow ([12]; Postemergence, 62 g ai/ha): 0
- Plant response rating, Purslane ([13]; 16 g ai/ha, Preemergence): 0
- Plant response rating, Purslane ([13]; 31 g ai/ha, Preemergence): 0
- Plant response rating, Purslane ([13]; 62 g ai/ha, Preemergence): 0
- Plant response rating, Purslane ([13]; Postemergence, 8 g ai/ha): 0
- Plant response rating, Purslane ([13]; Postemergence, 16 g ai/ha): 0
- Plant response rating, Purslane ([13]; Postemergence, 31 g ai/ha): 0
- Plant response rating, Purslane ([13]; Postemergence, 62 g ai/ha): 0
- Plant response rating, Quackgrass ([14]; 16 g ai/ha, Preemergence): 20
- Plant response rating, Quackgrass ([14]; 31 g ai/ha, Preemergence): 40
- Plant response rating, Quackgrass ([14]; 62 g ai/ha, Preemergence): 50
- Plant response rating, Quackgrass ([14]; Postemergence, 8 g ai/ha): 0
- Plant response rating, Quackgrass ([14]; Postemergence, 16 g ai/ha): 10
- Plant response rating, Quackgrass ([14]; Postemergence, 31 g ai/ha): 30
- Plant response rating, Quackgrass ([14]; Postemergence, 62 g ai/ha): 40
- Plant response rating, Bermudagrass ([15]; 8 g ai/ha, Preemergence): 60
- Plant response rating, Bermudagrass ([15]; 16 g ai/ha, Preemergence): 80
- Plant response rating, Bermudagrass ([15]; 31 g ai/ha, Preemergence): 98
- Plant response rating, Bermudagrass ([15]; 62 g ai/ha, Preemergence): 100
- Plant response rating, Bermudagrass ([15]; Postemergence, 8 g ai/ha): 35
- Plant response rating, Bermudagrass ([15]; Postemergence, 16 g ai/ha): 65
- Plant response rating, Bermudagrass ([15]; Postemergence, 31 g ai/ha): 80
- Plant response rating, Bermudagrass ([15]; Postemergence, 62 g ai/ha): 90
- Plant response rating, Ryegrass, Italian ([16]; 16 g ai/ha, Preemergence): 98
- Plant response rating, Ryegrass, Italian ([16]; 31 g ai/ha, Preemergence): 100
- Plant response rating, Ryegrass, Italian ([16]; 62 g ai/ha, Preemergence): 100
- Plant response rating, Ryegrass, Italian ([16]; Postemergence, 8 g ai/ha): 20
- Plant response rating, Ryegrass, Italian ([16]; Postemergence, 16 g ai/ha): 20
- Plant response rating, Ryegrass, Italian ([16]; Postemergence, 31 g ai/ha): 60
- Plant response rating, Ryegrass, Italian ([16]; Postemergence, 62 g ai/ha): 95
- Plant response rating, Johnsongrass ([17]; 16 g ai/ha, Preemergence): 75
- Plant response rating, Johnsongrass ([17]; 31 g ai/ha, Preemergence): 80
- Plant response rating, Johnsongrass ([17]; 62 g ai/ha, Preemergence): 90
- Plant response rating, Johnsongrass ([17]; Postemergence, 8 g ai/ha): 40
- Plant response rating, Johnsongrass ([17]; Postemergence, 16 g ai/ha): 50
- Plant response rating, Johnsongrass ([17]; Postemergence, 31 g ai/ha): 70
- Plant response rating, Johnsongrass ([17]; Postemergence, 62 g ai/ha): 98
